The compounds below were run against T1, human active recombinant p38α-6His tagged (Homo sapiens, UniProt Q16539) (assay: p38 Alpha Enzyme Assay (AlphaScreen, biotinylated-ATF2 substrate)). Settings: pre-incubated 4 hours at 37° C., reaction initiated with ATP; 0.5 nM enzyme; read-out: p38 pIC50 (converted).
T1 construct: 6His
T1 sequence (Q16539 whole entry): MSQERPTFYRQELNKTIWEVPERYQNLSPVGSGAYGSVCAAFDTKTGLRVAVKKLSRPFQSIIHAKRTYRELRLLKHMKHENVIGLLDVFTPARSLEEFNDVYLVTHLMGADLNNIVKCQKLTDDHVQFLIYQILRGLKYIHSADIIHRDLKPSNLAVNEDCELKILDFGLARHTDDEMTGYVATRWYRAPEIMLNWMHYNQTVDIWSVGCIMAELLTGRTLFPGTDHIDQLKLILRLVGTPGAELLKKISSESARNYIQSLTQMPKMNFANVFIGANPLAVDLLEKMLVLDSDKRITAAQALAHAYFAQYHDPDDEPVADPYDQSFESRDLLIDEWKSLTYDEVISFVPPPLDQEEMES
Assay type: biochemical
Experimental: The ability of the compounds of formula (I) to inhibit p38 kinase may be determined using the following biological assay:
Enzyme assays were performed in polypropylene 96 well plates. The following solutions were added to each well; 10 μL of compound dilutions in assay buffer (20 mM HEPES pH 7.4, containing 20 mM magnesium acetate, 0.005% (w/v) Tween-20, 10 mM DTT) containing 1% (v/v) DMSO or assay buffer containing 1% (v/v) DMSO alone, 70 μL of assay buffer containing 36 nM substrate (biotinylated-ATF2) and 10 μL of an appropriate dilution of human active recombinant p38α-6His tagged. Depending on batch of p38, an appropriate dilution was typically a 5 nM solution to give a final enzyme concentration of 0.5 nM. At this stage, background control wells also received 50 μL of AlphaScreen quench buffer (10 mM HEPES pH 7.4 containing 100 mM EDTA, 0.2% (w/v) bovine serum albumin). The plate was covered, pre-incubated for 4 hours at 37° C. and the enzyme reaction initiated by addition of 10 μL 1 mM ATP. After incubation for a further 45 minutes at 37° C., the reaction was stopped by addition of 50 μL quench reagent and 50 μL of the quenched reaction mixture transferred to an opaque, white 96-well plate. Detection reagent, 25 μL of 10 mM HEPES pH 7.4 containing 100 mM EDTA, 0.2% (w/v) bovine serum albumin, 0.3 nM anti phosphoATF2 antibody and 25 μg/mL of ‘AlphaScreen protein A acceptor and donor beads’ (PerkinElmer Inc.), was added to all wells in a darkened room, the plate sealed and left in the dark for at least 5 hours before AlphaScreen readings were taken using a Perkin Elmer EnVision reader. Total, uninhibited activity was determined from assays performed in each assay plate. The mean control in the absence of p38 activity was subtracted from each well. Data were expressed as percent inhibition of total activity using equation 1. Percent Inhibition=100*(1−Test/Control) Eq.1 Where . . . . • Test=p38 kinase activity in the presence of compound • Control=p38 kinase activity in the absence of compound.
pIC50 is defined as the logarithm of the reciprocal of the concentration of compound required for 50% reduction in total p38 kinase activity.
In the case of `CONC(=O)c1ccc(C)c(-c2ccc3c(=O)n(Cc4ccc(C5=CCNCC5)cc4)ccc3c2)c1` [Example 9, N-Methoxy-4-methyl-3-[1-oxo-2-[4-(1,2,3,6-tetrahydro-pyridin-4-yl)-benzyl]-1,2-dihydro-isoquinolin-6-yl]-benzamide], the IC50 was 0.2 nM. In the case of `CNCCOc1cccc(Cn2ccc3cc(-c4cc(C(=O)NC5CC5)ccc4C)ccc3c2=O)c1` [Example 34, N-Cyclopropyl-4-methyl-3-(2-{3-[2-(methylamino)ethoxy]benzyl}-1-oxo-1,2-dihydroisoquinolin-6-yl)benzamide], the IC50 was 2.51 nM. `Cc1c(F)cc(C(=O)NC2CC2)cc1-c1ccc2c(=O)n(Cc3ccccc3)cc(C(=O)NCCN(C)C)c2c1` [Example 60, 2-Benzyl-6-(5-(cyclopropylcarbamoyl)-3-fluoro-2-methylphenyl)-N-(2-(dimethylamino)ethyl)-1-oxo-1,2-dihydroisoquinoline-4-carboxamide] showed an IC50 of 0.398 nM. Work on `Cc1ccc(C(=O)NC2CC2)cc1-c1ccc2c(=O)n(Cc3ccccc3CN(C)C)ccc2c1` [Example 16, N-Cyclopropyl-3-[2-(2-dimethylaminomethyl-benzyl)-1-oxo-1,2-dihydro-isoquinolin-6-yl]-4-methyl-benzamide] yielded an IC50 of 50.1 nM. With `Cc1ccc(C(=O)NC2CC2)cc1-c1ccc2c(=O)n(Cc3ccccc3)ccc2c1` [Example 1, 3-(2-Benzyl-1-oxo-1,2-dihydro-isoquinolin-6-yl)-N-cyclopropyl-4-methyl-benzamide] the IC50 was 0.794 nM. Compound `Cc1ccc(C(=O)NC2CC2)cc1-c1ccc2c(=O)n(Cc3ccc(CN(C)C(C)(C)C)cc3)ccc2c1` [Example 27, 3-(2-(4-((Tert-butyl(methyl)amino)methyl)benzyl)-1-oxo-1,2-dihydroisoquinolin-6-yl)-N-cyclopropyl-4-methylbenzamide] has an IC50 of 1 nM. Work on `Cc1ccc(C(=O)NC2CC2)cc1-c1ccc2c(=O)n(Cc3ccc(CN(C)C)cc3)c(C)cc2c1` [Example 96, N-Cyclopropyl-3-(2-(4-((dimethylamino)methyl)benzyl)-3-methyl-1-oxo-1,2-dihydroisoquinolin-6-yl)-4-methylbenzamide] yielded an IC50 of 10 nM. With `Cc1ccc(C(=O)NC2CC2)cc1-c1ccc2c(=O)n(Cc3ccncc3)cc(C(=O)N(C)C3CCN(C)CC3)c2c1` [Example 55, 6-(5-(Cyclopropylcarbamoyl)-2-methylphenyl)-N-methyl-N-(1-methylpiperidin-4-yl)-1-oxo-2-(pyridin-4-ylmethyl)-1,2-dihydroisoquinoline-4-carboxamide] the IC50 was 31.6 nM. `Cc1ccc(C(=O)NC2CC2)cc1-c1ccc2c(=O)n(CC3CC3)cc(COCCN(C)C)c2c1` [Example 101, N-Cyclopropyl-3-(2-(cyclopropylmethyl)-4-((2-(dimethylamino)ethoxy)methyl)-1-oxo-1,2-dihydroisoquinolin-6-yl)-4-methylbenzamide] was tested, and the IC50 was 3.16 nM. Compound `Cc1ccc(C(=O)NC2CC2)cc1-c1ccc2c(=O)n(Cc3ccc(S(C)(=O)=O)cc3)cc(CN3CCCN(C)CC3)c2c1` [Example 103, N-Cyclopropyl-4-methyl-3-(4-((4-methyl-1,4-diazepan-1-yl)methyl)-2-(4-(methylsulfonyl)benzyl)-1-oxo-1,2-dihydroisoquinolin-6-yl)benzamide] has an IC50 of 0.126 nM. For `Cc1ccc(C(=O)NC2CC2)cc1-c1ccc2c(=O)n(Cc3ccc(CN(C)C)cc3)ccc2c1` [Example 14, N-Cyclopropyl-3-[2-(4-dimethylaminomethyl-benzyl)-1-oxo-1,2-dihydro-isoquinolin-6-yl]-4-methyl-benzamide], the IC50 was 2.51 nM. Compound `Cc1ccc(C(=O)NC2CC2)cc1-c1ccc2c(=O)n(CC3CC3)cc(CN3CCCN(C)CC3)c2c1` [Example 59, N-Cyclopropyl-3-[2-cyclopropylmethyl-4-(4-methyl-[1,4]diazepan-1-ylmethyl)-1-oxo-1,2-dihydro-isoquinolin-6-yl]-4-methyl-benzamide] has an IC50 of 0.316 nM. In the case of `CNC1CCN(Cc2cn(CC3CC3)c(=O)c3ccc(-c4cc(C(=O)NC5CC5)cc(F)c4C)cc23)CC1` [Example 81, N-Cyclopropyl-3-(2-(cyclopropylmethyl)-4-((4-(methylamino)piperidin-1-yl)methyl)-1-oxo-1,2-dihydroisoquinolin-6-yl)-5-fluoro-4-methylbenzamide], the IC50 was 0.1 nM. In the case of `Cc1c(F)cc(C(=O)NC2CC2)cc1-c1ccc2c(=O)n(CC3CC3)cc(CN3CCN[C@@H](CCO)C3)c2c1` [Example 117, (S)—N-Cyclopropyl-3-(2-(cyclopropylmethyl)-4-((3-(2-hydroxyethyl)piperazin-1-yl)methyl)-1-oxo-1,2-dihydroisoquinolin-6-yl)-5-fluoro-4-methylbenzamide], the IC50 was 0.158 nM. With `Cc1c(F)cc(C(=O)NC2CC2)cc1-c1ccc2c(=O)n(CC3CC3)cc(CN3CCNCC3)c2c1` [Example 88, N-Cyclopropyl-3-(2-(cyclopropylmethyl)-1-oxo-4-(piperazin-1-ylmethyl)-1,2-dihydroisoquinolin-6-yl)-5-fluoro-4-methylbenzamide] the IC50 was 0.0631 nM. Work on `Cc1ccc(C(=O)NC2CC2)cc1-c1ccc2c(=O)n(Cc3ccc(C4CCNCC4)cc3)cc(C)c2c1` [Example 97, N-Cyclopropyl-4-methyl-3-(4-methyl-1-oxo-2-(4-(piperidin-4-yl)benzyl)-1,2-dihydroisoquinolin-6-yl)benzamide] yielded an IC50 of 0.251 nM. `Cc1ccc(C(=O)NC2CC2)cc1-c1ccc2c(=O)n(Cc3ccc(C(=O)N(C)CCN(C)C)cc3)ccc2c1` [Example 18, N-Cyclopropyl-3-(2-(4-((2-(dimethylamino)ethyl)(methyl)carbamoyl)benzyl)-1-oxo-1,2-dihydroisoquinolin-6-yl)-4-methylbenzamide] showed an IC50 of 2 nM. In the case of `Cc1c(F)cc(C(=O)NC2CC2)cc1-c1ccc2c(=O)n(CC3CC3)cc(CN[C@@H]3CCNC3)c2c1` [Example 110, (R)—N-Cyclopropyl-3-(2-(cyclopropylmethyl)-1-oxo-4-((pyrrolidin-3-ylamino)methyl)-1,2-dihydroisoquinolin-6-yl)-5-fluoro-4-methylbenzamide], the IC50 was 1 nM. `Cc1c(F)cc(C(=O)NC2CC2)cc1-c1ccc2c(=O)n(CC3CC3)cc(CNCC3CCNCC3)c2c1` [Example 89, N-Cyclopropyl-3-(2-(cyclopropylmethyl)-1-oxo-4-((piperidin-4-ylmethylamino)methyl)-1,2-dihydroisoquinolin-6-yl)-5-fluoro-4-methylbenzamide] showed an IC50 of 0.794 nM. Work on `Cc1ccc(C(=O)NC2CC2)cc1-c1ccc2c(=O)n(Cc3ccc(CN4CCCC4)cc3)ccc2c1` [Example 25, N-Cyclopropyl-4-methyl-3-(1-oxo-2-(4-(pyrrolidin-1-ylmethyl)benzyl)-1,2-dihydroisoquinolin-6-yl)benzamide] yielded an IC50 of 3.16 nM. For `Cc1ccc(C(=O)NC2CC2)cc1-c1ccc2c(=O)n(Cc3ccccc3)cc(C(=O)NC3CCN(C)CC3)c2c1` [Example 50, 2-Benzyl-6-{5-[(cyclopropylamino)carbonyl]-2-methylphenyl}-N-(1-methylpiperidin-4-yl)-1-oxo-1,2-dihydroisoquinoline-4-carboxamide], the IC50 was 2 nM. In the case of `Cc1c(F)cc(C(=O)NC2CC2)cc1-c1ccc2c(=O)n(CC3CC3)cc(CN3CCN[C@H](CO)C3)c2c1` [Example 102, (S)—N-Cyclopropyl-3-(2-(cyclopropylmethyl)-4-((3-(hydroxymethyl)piperazin-1-yl)methyl)-1-oxo-1,2-dihydroisoquinolin-6-yl)-5-fluoro-4-methylbenzamide], the IC50 was 0.0501 nM.

From US8012979B2, “Compounds and their uses 707” (AstraZeneca AB, priority 2007, dated 2011)
